According to patent US9718828B2 (MERCK SHARP & DOHME CORP., priority 2011, dated 2017):
Counter-ions that a name gives are not always drawn. Like-named read-outs stand apart in the source and are kept apart here.

Molecular target: Btk enzyme (His-Btk) (Homo sapiens (Human), UniProt Q06187)
Experiment: Btk enzyme activity, IMAP fluorescence polarization assay (Assay Method A)
[1] = read-out: EC50 Btk activity values - Assay Method A, IMAP-FP, 60 min pre-incubation, 5 μM ATP, class 100-1000 is given as ≧100 nM-<1 μM

Sequence of Btk enzyme (His-Btk) (Q06187 whole entry): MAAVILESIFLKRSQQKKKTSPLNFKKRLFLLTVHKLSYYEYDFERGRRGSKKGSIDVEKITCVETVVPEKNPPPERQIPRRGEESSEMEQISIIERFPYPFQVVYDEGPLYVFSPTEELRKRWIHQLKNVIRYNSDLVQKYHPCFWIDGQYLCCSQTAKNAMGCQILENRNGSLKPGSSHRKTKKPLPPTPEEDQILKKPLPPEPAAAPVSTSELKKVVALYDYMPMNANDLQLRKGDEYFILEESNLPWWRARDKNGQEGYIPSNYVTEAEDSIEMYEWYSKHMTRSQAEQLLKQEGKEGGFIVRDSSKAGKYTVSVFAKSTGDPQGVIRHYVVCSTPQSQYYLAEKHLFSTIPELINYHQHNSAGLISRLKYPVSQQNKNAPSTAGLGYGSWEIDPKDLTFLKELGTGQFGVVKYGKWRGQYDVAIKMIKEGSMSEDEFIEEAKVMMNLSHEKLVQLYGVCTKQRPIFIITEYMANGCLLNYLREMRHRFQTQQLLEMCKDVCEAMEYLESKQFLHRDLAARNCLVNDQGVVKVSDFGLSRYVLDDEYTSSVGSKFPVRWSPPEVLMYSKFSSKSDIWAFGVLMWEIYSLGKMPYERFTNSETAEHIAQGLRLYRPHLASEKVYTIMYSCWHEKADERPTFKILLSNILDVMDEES

Row | Structure (SMILES) | EC50 [nM] | EC50 [1] [nM]
1 | CC(C)(O)CC(=O)N1CCC[C@@H](c2nc(-c3ccc(C(=O)Nc4cc(C(F)(F)F)ccn4)cc3)c3c(N)nccn23)C1 [Example 71, (R)-4-(8-amino-3-(1-(3-hydroxy-3-methylbutanoyl)piperidin-3-yl)imidazo[1,5-a]pyrazin-1-yl)-N-(4-(trifluoromethyl)pyridin-2-yl)benzamide] | < 10 | 
2 | COCCC(=O)N1CC[C@@H](c2nc(-c3ccc(C(=O)Nc4ccccn4)cc3)c3c(N)nccn23)C1 [Example 125, (R)-4-(8-amino-3-(1-(3-methoxypropanoyl)pyrrolidin-3-yl)imidazo[1,5-a]pyrazin-1-yl)-N-(pyridin-2-yl)benzamide, TFA salt] | 100 to 1000 | 
3 | CCNC(=O)N1CCC[C@@H](c2nc(-c3ccc(C(=O)Nc4ccccn4)cc3)c3c(N)nccn23)C1 [Example 48, (R)-3-(8-amino-1-(4-(pyridin-2-ylcarbamoyl)phenyl)imidazo[1,5-a]pyrazin-3-yl)-N-ethylpiperidine-1-carboxamide] |  | < 10
4 | Nc1nccn2c1c(-c1ccc(C(=O)Nc3ccccn3)c(F)c1)nc2[C@H]1CC[C@H](O)CC1 [Example 12, 4-(8-amino-3-((trans)-4-hydroxycyclohexyl)imidazo[1,5-a]pyrazin-1-yl)-2-fluoro-N-(pyridin-2-yl)benzamide] | 100 to 1000 | 
5 | Nc1nccn2c([C@@H]3CCCN(C(=O)C4CCC4)C3)nc(-c3ccc(C(=O)Nc4cc(C5CC5)ccn4)cc3)c12 [Example 59, (R)-4-(8-amino-3-(1-(cyclobutanecarbonyl)piperidin-3-yl)imidazo[1,5-a]pyrazin-1-yl)-N-(4-cyclopropylpyridin-2-yl)benzamide] | < 10 | 
6 | Nc1nccn2c([C@@H]3CCCN(C(=O)C4CC(F)(F)C4)C3)nc(-c3ccc(C(=O)Nc4cc(C5CC5)ccn4)cc3)c12 [Example 109, (R)-4-(8-amino-3-(1-(3,3-difluorocyclobutanecarbonyl)piperidin-3-yl)imidazo[1,5-a]pyrazin-1-yl)-N-(4-cyclopropylpyridin-2-yl)benzamide] |  | < 10
7 | CSCCC(=O)N1CCC[C@@H](c2nc(-c3ccc(C(=O)Nc4cc(C(F)(F)F)ccn4)cc3)c3c(N)nccn23)C1 [Example 69, (R)-4-(8-amino-3-(1-(3-(methylthio)propanoyl)piperidin-3-yl)imidazo[1,5-a]pyrazin-1 yl)-N-(4-(trifluoromethyl)pyridin-2-yl)benzamide] | < 10 | 
8 | CC1(C)CC(c2nc(-c3ccc(C(=O)Nc4cc(C#N)ccn4)cc3)c3c(N)nccn23)CCO1 (stereo not drawn) [Example 37, 4-(8-amino-3-(2,2-dimethyltetrahydro-2H-pyran-4-yl)imidazo[1,5-a]pyrazin-1-yl)-N-(4-cyanopyridin-2-yl)benzamide] | 10 to 100 | 
9 | CC(C)(F)C(=O)N1CCC[C@@H](c2nc(-c3ccc(C(=O)Nc4cc(C5CC5)ccn4)cc3)c3c(N)nccn23)C1 [Example 64, (R)-4-(8-amino-3-(1-(2-fluoro-2-methylpropanoyl)piperidin-3-yl)imidazo[1,5-a]pyrazin-1-yl)-N-(4-cyclopropylpyridin-2-yl)benzamide] | < 10 | 
10 | CC1(C(=O)N2CCC[C@@H](c3nc(-c4ccc(C(=O)Nc5cc(C(F)(F)F)ccn5)cc4)c4c(N)ncc(C(=O)O)n34)C2)COC1 [Example 300, (R)-8-amino-3-(1-(3-methyloxetane-3-carbonyl)piperidin-3-yl)-1-(4-(4-(trifluoromethyl)pyridin-2-ylcarbamoyl)phenyl)imidazo[1,5-a]pyrazine-5-carboxylic acid] |  | < 10
11 | Nc1nccn2c([C@@H]3CCCN(C(=O)C(F)(F)F)C3)nc(-c3ccc(C(=O)Nc4cc(C(F)(F)F)ccn4)cc3)c12 [Example 72, (R)-4-(8-amino-3-(1-(2,2,2-trifluoroacetyl)piperidin-3-yl)imidazo[1,5-a]pyrazin-1-yl)-N-(4-(trifluoromethyl)pyridin-2-yl)benzamide] | < 10 | 

Further lines, results first:

Row | EC50 [nM] | EC50 [1] [nM] | Structure (SMILES)
12 |  | < 10 | CCCc1ccnc(NC(=O)c2ccc(-c3nc(N4CCOCC4)n4ccnc(N)c34)cc2)c1 [Example 212, 4-(8-amino-3-morpholinoimidazo[1,5-a]pyrazin-1-yl)-N-(4-propylpyridin-2-yl)benzamide]
13 | < 10 |  | CCC(=O)N1CCC[C@@H](c2nc(-c3ccc(C(=O)Nc4cc(C#N)ccn4)cc3)c3c(N)nccn23)C1 [Example 96, (R)-4-(8-amino-3-(1-propionylpiperidin-3-yl)imidazo[1,5-a]pyrazin-1-yl)-N-(4-cyanopyridin-2-yl)benzamide]
14 |  | < 10 | Cc1nnc(C(=O)N2CCC[C@@H](c3nc(-c4ccc(C(=O)Nc5cc(C6CC6)ccn5)cc4)c4c(N)nccn34)C2)o1 [Example 116, (R)-4-(8-amino-3-(1-(5-methyl-1,3,4-oxadiazole-2-carbonyl)piperidin-3-yl)imidazo[1,5-a]pyrazin-1-yl)-N-(4-cyclopropylpyridin-2-yl)benzamide]
15 | < 10 |  | COCCOCCC(=O)N1CCC[C@@H](c2nc(-c3ccc(C(=O)Nc4cc(C(F)(F)F)ccn4)cc3)c3c(N)nccn23)C1 [Example 68, (R)-4-(8-amino-3-(1-(3-(2-methoxyethoxy)propanoyl)piperidin-3-yl)imidazo[1,5-a]pyrazin-1-yl)-N-(4-(trifluoromethyl)pyridin-2-yl)benzamide]
16 | 10 to 100 |  | COCc1n[nH]c2c1CC(c1nc(-c3ccc(C(=O)Nc4cc(C(F)(F)F)ccn4)cc3)c3c(N)nccn13)CC2 (stereo not drawn) [Example 250, 4-(8-amino-3-(3-(methoxymethyl)-4,5,6,7-tetrahydro-1H-indazol-5-yl)imidazo[1,5-a]pyrazin-1-yl)-N-(4-(trifluoromethyl)pyridin-2-yl)benzamide]
17 |  | < 10 | Nc1nccn2c(N3CCCC(C(=O)N4CCCC4)C3)nc(-c3ccc(C(=O)Nc4cc(C5CC5)ccn4)cc3)c12 (stereo not drawn) [Example 247, 4-(8-amino-3-(3-(pyrrolidine-1-carbonyl)piperidin-1-yl)imidazo[1,5-a]pyrazin-1-yl)-N-(4-cyclopropylpyridin-2-yl)benzamide, TFA salt]
18 |  | < 10 | Nc1nccn2c([C@@H]3CCC[C@@H](NC(=O)C4CCCO4)C3)nc(-c3ccc(C(=O)Nc4cc(C(F)(F)F)ccn4)cc3)c12 (relative stereo) [Example 169, N-((trans)-3-(8-amino-1-(4-(4-(trifluoromethyl)pyridin-2-ylcarbamoyl)phenyl)imidazo [1,5-a]pyrazin-3-yl)cyclohexyl)tetrahydrofuran-2-carboxamide]
19 | 10 to 100 |  | C[C@@H]1CC[C@@H](c2nc(-c3ccc(C(=O)Nc4cc(C(F)(F)F)ccn4)cc3)c3c(N)nccn23)CN1C(=O)C1CC1 (relative stereo) [Example 188, 4-(8-amino-3-((trans)-1-(cyclopropanecarbonyl)-6-methylpiperidin-3-yl)imidazo[1,5-a]pyrazin-1-yl)-N-(4-(trifluoromethyl)pyridin-2-yl)benzamide, TFA salt]
20 | 10 to 100 |  | Nc1nccn2c1c(-c1ccc(C(=O)Nc3ccccn3)c(Cl)c1)nc2[C@H]1CC[C@H](O)CC1 [Example 23, 4-(8-amino-3-((trans)-4-hydroxycyclohexyl)imidazo[1,5-a]pyrazin-1-yl)-2-chloro-N-(pyridin-2-yl)benzamide]
21 | < 10 |  | COCCC(=O)N1CCC[C@@H](c2nc(-c3ccc(C(=O)Nc4ccccn4)c(F)c3)c3c(N)nccn23)C1 [Example 282, (R)-4-(8-amino-3-(1-(3-methoxypropanoyl)piperidin-3-yl)imidazo[1,5-a]pyrazin-1-yl)-2-fluoro-N-(pyridin-2-yl)benzamide, TFA salt]
